Where two headings read alike, the source gives them in different places.
Experiments:
[1] = test system: Yeast + HsCIpP; assay: Yeast growth inhibition screen, yeast expressing human ClpP; type: cell-based; settings: Saccharomyces cerevisiae, 24 h, read-out: Yeast + HsCIpP GI50
Excerpt: This technique allows to directionally assemble several DNA fragments into one single DNA piece. It is based on plasmid libraries that share the same DNA backbone but differ in the type of the insert. The assembly of the final cassette is based on the "Golden Gate Cloning" method. Human CLPP gene sequence (codon-optimized for yeast translation) was amplified with well-designed primers from a plasmid kindly provided by Dr. Michael David Tyers (University of Montreal). Once amplified, a MoClo reaction was performed to obtain the final integrative cassette. This cassette was composed as follows: • Type 1: ConLS 3' connector. • Type 2: TDH3 gene promoter (strong and constitutive expression). • Type 3: Amplified human CLPP gene. • Type 4: ADH1 gene terminator. • Type 5: ConR1 5' connector. • Type 6: LEU2 gene as selectable marker for yeast. • Type 7: 3' HO gene homology sequence for yeast integration. • Type 8a: KanR-ColE1 sequence for bacterial amplification and antibiotic resistance. • Type 8b: 5' HO gene homology sequence for yeast integration.
Digestion patterns with several restriction enzymes were carried out to confirm the success of the MoClo system. An extra restriction enzyme reaction (Notl) was performed to linearize the DNA fragment and deplete the bacterial part.
(§1) These cells contain mutants in YRS1, YRR1, PDR1 and PDR3 genes, which are involved in polydrug and pleiotropic resistance networks.
Yeast cells were transformed with the linearized cassette and transformant colonies were selected on minimum media without leucine. Independent clones were checked by PCR and positive ones were stored at -80 °C until use.
(§2) The yeast (both HsCpIP+ and HsCIpP-) are incubated in petri dishes with YPD (Yeast extract peptone dextrose) at 25 °C overnight, after which a colony is isolated, suspended in a flask with fresh YPD and incubating again under the same conditions but with agitation. […] 100 µl of this solution was then placed into the appropriated wells of a standard 96-well plate. Stock solutions (DMSO, 10 mM) of the compounds to be tested are diluted in YPD to 2X of their final concentrations to be tested, and 100 µl added to the appropriate wells. 100 µl of YPD was added to wells designated as the negative control wells, while ONC206 (0.5 µM) was used as the positive control. Once all compounds were added to the plate, an initial T = 0 absorbance value was recorded at 600 Nm. The plate was then incubated at 25 °C with gentle shaking for 24 h. The plates can either be read at multiple time points using a TECAN Spark® Multimode Microplate Reader, or at the end of the experiment using a standard spectrophotometer.
(§3) Table 2: Growth inhibition (GI50) values for compounds of the present invention in yeast containing HsCIpP, and yeast without HsCIpP.

[2] = test system: Yeast - HsCIpP; assay: Yeast growth inhibition screen, yeast without human ClpP (selectivity control); type: cell-based; settings: Saccharomyces cerevisiae, read-out: Yeast - HsCIpP GI50
Method: as §1, §2, §3

[3] = test system: 4T1; assay: MTT cell viability assay, 4T1; type: cell-based; settings: Mus musculus, read-out: IC50 4T1 48 H
Method: This a mouse epithelial breast cancer cell line classified as being triple negative and mimics human breast cancer; stage IV.
Cell viability was assayed by measuring the mitochondrial reduction of the tetrazolium salt 3-(4,5-methyltiazol-2yl)-2,5diphenyl-tetrazolium bromide] (MTT) (Applichen; A2231,0010) [Mosmann T. J Immunol Methods. […] Oncogene. […] Cells were seeded at a density according to their exponential growth phase (normally 1000 to 5000/well). The cells were cultured at 37 °C in the dark in air containing 5% CO2. After 24h either vehicle (0.05% DMSO), or drug, was added to culture medium at the indicated concentrations (10 to 0,01microM). […] The medium was then removed, and the precipitated formazan was solubilized by the addition of DMSO (200 µL).

[4] = test system: MDA-MB-231; assay: MTT cell viability assay, MDA-MB-231; type: cell-based; settings: Homo sapiens, MDA-MB-231 cells, 72 H, average of at least two independent experiments
Method: This a human breast cancer cell line derived from a metastatic site from a person.
(§4) Cell viability was assayed by measuring the mitochondrial reduction of the tetrazolium salt 3-(4,5-methyltiazol-2yl)-2,5diphenyl-tetrazolium bromide] (MTT) (Applichen; A2231,0010) [Mosmann T. J Immunol Methods. […] Oncogene. […] Cells were seeded at a density according to their exponential growth phase (normally 1000 to 5000/well). The cells were cultured at 37 °C in the dark in air containing 5% CO2. After 24h either vehicle (0.05% DMSO), or drug, was added to culture medium at the indicated concentrations (10 to 0,01microM). After another 72 h, MTT (0.3 mg/ml) was added to cells, followed by incubation for 2-4h at 37 °C in the dark. The medium was then removed, and the precipitated formazan was solubilized by the addition of DMSO (200 µL).

[5] = test system: U2 OS; assay: MTT cell viability assay, U2 OS; type: cell-based; settings: Homo sapiens, U2OS, U2 OS cells, 72 H, average of at least two independent experiments
Method: U2 OS [American Type Culture Collection (ATCC) reference number HTB-96]. This is a human bone cancer (a moderately differentiated sarcoma) cell derived from an osteosarcoma patient.
as §4

[6] = test system: DU-145; assay: MTT cell viability assay, DU-145; type: cell-based; settings: Homo sapiens, DU-145 cells, 72 H, average of at least two independent experiments
Method: This a human prostate cancer cell line derived from a metastatic site (brain) of a person.
as §4

[7] = test system: PANC1; assay: MTT cell viability assay, PANC1; type: cell-based; settings: Homo sapiens, PANC-1, PANC1 cells, 72 H, average of at least two independent experiments
Method: This a human cancer cell line derived from the pancreas of a person.
as §4

[8] = test system: MDA-MB-231 cells; assay: cells; settings: for GI50 / CC50: Homo sapiens, MDA-MB-231, 72 h; for CC50: read-out: LC50; for Result / TGI50: MDA-MB-231 72 H, SRB; for Result: cytostatic or not; for TGI50: total growth inhibition concentration
Method: In order to measure the cell population at the time zero (Tz) a plate of cells was stained with SRB 24 hours after seeding. The cell monolayers are fixed with cold 5% (w/v) trichloroacetic acid for 60 minutes at 4°C. The excess of trichloroacetic acid is removed by washing five times with distilled water. Sulforhodamine B (SRB) solution [50 µL at 0.4%(w/v) in 1% acetic acid] is added to each well and plates are incubated for 8 minutes at room temperature. The excess dye is removed by washing five times with 1% (v/v) acetic acid. The bound stain is subsequently solubilized with (100 µL) 10 mM trizma base and the absorbance is read on automated plate reader at a wavelength of 550 nm.
Compounds at various concentrations were added to an identical cell-seeded (non-treated) plate and incubated at 37°C (5% CO2) for an additional […]. Cells were fixed and stained following the same protocol. The measurement of the cell population after 72 hours in the presence of the drug is (Ti). Several wells in the same plate were treated with the control vehicle.
Using the absorbance measurements, time zero (Tz), control growth (C), and test growth in the present of the compound (Ti) the percentage growth inhibition is calculated as: • [(Ti-Tz)/(C-Tz)] x 100 for concentrations for which Ti >/= Tz • [(Ti-Tz)/Tz] x 100 for concentrations for which Ti <Tz
These values were determined using GraphPad software v5 (San Diego, CA).

[9] = yeast without HsCIpP, 24 h at 25 °C, absorbance at 600 nm
[10] = 4T1 cells, 48 H, MTT, average of at least two independent experiments

Row | SMILES | GI50 [1] [µM] | GI50 [2, 9] [µM] | IC50 [3, 10] [µM] | IC50 [4] [µM] | IC50 [5] [µM] | IC50 [6] [µM] | IC50 [7] [µM] | GI50 [8] [µM] | CC50 [8] [µM] | Result [8] | TGI50 [8] [µM] | IC50 ([3]; 4T1, 48 h) [µM] | GI50 ([2]; 24 h) [µM]
1 | O=C1C2CN(Cc3cccc(F)c3)CCN2CCN1Cc1ccc(F)cc1 (centres unmarked) [Compound 5] | 0.14 | > 10 | 0.19 | 0.24 | 0.4 | 0.3 | 0.25 |  |  |  |  |  | 
2 | O=C1C2CN(Cc3ccccc3)CCN2CCN1Cc1cccc(Cl)c1 (centres unmarked) [Compound 9] | 0.69 | > 10 | 0.93 | 0.935 | 1.14 | 1.08 | 0.83 |  |  |  |  |  | 
3 | N#Cc1cccc(CN2CCN3CCN(Cc4ccc(C(F)(F)F)cc4)C(=O)C3C2)c1 (centres unmarked) [Compound 12] | 0.075 | > 10 | < 0.1 | < 0.1 | 0.2 | 0.1 | < 0.1 | < 0.1 | > 10 | Cytostatic | >10 |  | 
4 | O=C1C2CN(Cc3ccccc3)CCN2CCN1Cc1ccc(F)cc1 (centres unmarked) [Compound 11] | 0.62 | > 10 | 0.515 | 0.49 | 0.8 | 0.41 | 0.6 |  |  |  |  |  | 
5 | O=C1C2CN(Cc3ccccc3)CCN2CCN1Cc1ccc(C(F)(F)F)cc1 (centres unmarked) [Compound 10] | 0.18 | > 10 | 0.65 | 0.635 | 1 | 0.64 | 0.64 |  |  |  |  |  | 
6 | O=C1C2CN(CCCCC(F)(F)F)CCN2CCN1Cc1ccc(C(F)(F)F)cc1 (centres unmarked) [Compound 8] | 1.65 | > 10 | 0.31 | 0.4 | 2 |  | 0.35 |  |  |  |  |  | 
7 | Cc1ccccc1CN1C(=O)C2=C(CCN(Cc3ccccc3)C2)N2CCN=C12 [ONC201, reference compound] |  |  |  | 2.29 | 4.8 | 1.71 | 1.72 |  |  | Cytostatic | >10 | 2.21 | 
8 | O=C1C2CN(CCCCC(F)(F)F)CCN2CCN1Cc1ccc(F)cc1 (centres unmarked) [Compound 7] | 2.05 | > 10 | 0.34 | 0.43 | 0.5 | 0.5 | 0.33 |  |  |  |  |  | 
9 | O=C1C2CN(Cc3cccc(F)c3)CCN2CCN1Cc1cccc(C(F)(F)F)c1 (centres unmarked) [Compound 13, 8-(3-fluorobenzyl)-2-(3-(trifluoromethyl)benzyl)hexahydro-2H-pyrazinof1,2-alpyrazin-1(6H)-one] | 0.04 | > 10 | 0.17 | 0.19 | 0.3 | 0.25 | 0.165 | 0.42 | > 10 | Cytostatic | >10 |  | 
10 | N#Cc1cccc(CN2CCN3CCN(Cc4ccc(F)cc4)C(=O)C3C2)c1 (centres unmarked) [Compound 1] | 0.15 | > 10 | 0.103 | 0.12 | 0.22 | 0.2 | 0.195 |  |  |  |  |  | 
11 | O=C1C2CN(Cc3cccc(F)c3)CCN2CCN1Cc1ccc(Cl)cc1 (centres unmarked) [Compound 6] | 0.06 | > 10 | 0.15 | 0.19 | 0.3 | 0.25 | 0.19 |  |  |  |  |  | 
12 | N#Cc1cccc(CN2CCN3CCN(Cc4cccc(Cl)c4)C(=O)C3C2)c1 (centres unmarked) [Compound 2] | 0.12 | > 10 | 0.165 | 0.145 | 0.25 | 0.25 | 0.14 |  |  |  |  |  | 
13 | O=C1C2CN(Cc3ccc(C(F)(F)F)cc3)CCN2CCN1Cc1ccc(C(F)(F)F)cc1 (centres unmarked) [Compound 14, 8-(4-trifluoromethylbenzyl)-2-(4-(trifluoromethyl)benzyl)hexahydro-2H-pyrazino[1,2-a]pyrazin-1(6H)-one] | 2.58 |  | 2.22 |  |  |  | 0.24 |  |  |  |  |  | > 10
